One assay concerns SW-480. In words: Anti-proliferation MTT assay (Example 2, Table 1). It is filed as cell-based. The note with it: SW480; SW-480 human colon adenocarcinoma. A general note: Tetrazolium dyes change colour on reduction, which living cells bring about.
Assay [1] has as its system U937. Briefly: Anti-proliferation MTT assay (Example 2, Table 1). The note with it: U-937; U937 human histiocytic lymphoma. It is filed as cell-based.
Method: (§3) A given number of cells were cultivated in 96-well plates with serial dilutions of the drugs up to 100 ng/ml. Tubulysin A is used as a positive control, whereas methanol is used as a negative control. After 5 days of incubation the metabolic activities of the cells were measured using MTT-assay as described under the methods section.
Another assay relates to COS-7. Briefly: cells. The note with it: Chlorocebus sabaeus; COS-7, average of two measurements; read-out: IC50. It is filed as cell-based, African green monkey. As to the method:
(§1) Cytotoxicity testing of pretubulysin (AU827), N-desmethyl-pretubulysin (AU816) and Tubulysin A and D was performed as follows: Cells were seeded at 6×10^3 cells per well of 96-well plates in 180 μl complete medium and directly treated with varying concentrations of (pre-)tubulysins diluted in methanol. Each compound was tested in duplicate as well as the internal methanol control. After 5 d incubation, 20 μl of 5 mg/ml MTT (Thiazolyl blue tetrazolium bromide) in PBS was added per well and it was further incubated for 2 h at 37° C. The medium was then discarded and cells were washed with 100 μl PBS before adding 100 μl 2-propanol/10 N HCl (250:1) in order to dissolve formazan granules.
(§2) The absorbance at 570 nm was measured using a microplate reader (EL808, Bio-Tek Instruments Inc.), and cell viability was expressed as percentage relative to the respective methanol control. IC50 values were obtained by plotting relative growth inhibition in % against the compound concentration on a logarithmic scale. After sigmoidal curve fitting IC50 values can be determined. The IC50[per ml] are shown in the following table (values represent the average of two measurements): […]

For another assay, the system named is L929. In words: cells. It is filed as cell-based, mouse. The settings on record: Mus musculus; L929, average of two measurements; read-out: IC50. As to the method: as §1, §2
The test system of the next assay is A431. Briefly: cells. The settings on record: Homo sapiens, A-431; A431, average of two measurements; read-out: IC50. It is filed as cell-based, human. As to the method:
as §1, §2

In the next assay the test system is A549. In words: cells. It is filed as cell-based, human. The note with it: Homo sapiens; A549, average of two measurements; read-out: IC50. As to the method:
as §1, §2

Another assay deals with HEK293T. Briefly: cells. The note with it: Homo sapiens, HEK-293T, average of two measurements, read-out: IC50. It is filed as cell-based, human. On the procedure: as §1, §2
A further assay deals with HL-60. In words: cells. It is filed as cell-based, human. The settings on record: Homo sapiens; HL-60, average of two measurements; read-out: IC50. As to the method:
as §1, §2

For a further assay, the system named is HepG2. In words: cells. It is filed as cell-based, human. The settings on record: Homo sapiens; HepG2, average of two measurements; read-out: IC50. On the procedure: as §1, §2
The subject of a further assay is K562. In words: cells. The settings on record: Homo sapiens; K562, average of two measurements; read-out: IC50. It is filed as cell-based, human. As to the method: as §1, §2
The subject of the next assay is KB3.1. Briefly: cells. It is filed as cell-based, human. The note with it: Homo sapiens, KB 3-1; KB3.1, average of two measurements; read-out: IC50. On the procedure:
as §1, §2

For another assay, the system named is SH-SY5Y. Briefly: cells. It is filed as cell-based, human. The settings on record: Homo sapiens, average of two measurements, read-out: IC50. On the procedure: as §1, §2
In the next assay the test system is SW480. In words: cells. It is filed as cell-based, human. The settings on record: Homo sapiens; SW480, average of two measurements; read-out: IC50. As to the method: as §1, §2
Assay [2] has as its system U937. In words: cells. It is filed as cell-based, human. The settings on record: Homo sapiens, U-937; U937, average of two measurements; read-out: IC50. On the procedure:
as §1, §2

A further assay concerns KB.3.1 cells. Briefly: Cell cycle analysis (FACS, DNA content). It is filed as cell-based, human. As to the method:
Cell cycle analysis: approximately 10^6 cells were harvested by centrifugation and fixed in −20° C. cold 80% methanol. After 30 min of incubation on ice, the cells were washed with PBS and then with saponin containing PBS (0.1%). For DNA staining cells were incubated for 30 min at 37° C. in a solution containing 20 μg ml^−1 Propidium iodide, and 1 mg ml^−1 RNase. Samples were analysed by FacScan (Becton Dickinson).
All drugs that target the microtubules are known to induce a cell cycle arrest in G2M phase in different cell lines. The ability of pre-tubulysin-816 and -827 on the progress of cell cycle in the cervices carcinoma cell line KB.3.1 was tested. Cells were treated with different concentrations of the drugs and incubated for 24 hours under cultivation conditions. After the incubation time was ended, cells were collected by centrifugation, fixed and the DNA was labeled as described in the method sections. The DNA content of the cells was detected via FACS analysis. The resulting data were calculated using Dean-Jett-Fox algorithm.

For the next assay, the system named is HL-60 cells. In words: Apoptosis induction, DNA laddering. The note with it: for apoptosis induction (DNA laddering): HL-60, 24 hours after treatment. It is filed as cell-based, human. As to the method:
Detection of DNA laddering: Apoptotic DNA fragmentation was investigated using the method described by Gong et al. 1-2 μg DNA were loaded into a well of a 1.7% agarose gel, separated by electrophoresis at 4 volts/cm for approximately 4 hours using 0.5×TBE buffer (0.045 M Tris-borate, 1 mM EDTA). The resulting bands were stained by ethidium bromide and detected under UV-light.
Anti-mitotic agents like epothilone (Trivedi, M. et al., Future Oncol. 4, 483-500 (2008)) disorazol (Elnakady, Y. A. et al., Biochem. Pharmacol. 67, 927-935 (2004); Irschik, H. et al., Antibiot. (Tokyo) 48, 31-35 (1995)), and tubulysin (Khalil, M. et al., Chembiochem. 7, 678-683 (2006)) are known to induce apoptosis in different cancer cell lines. A hallmark of apoptosis induced by animitotic agent is the cleavage the chromosomal DNA into distinct fragments which can be separated via gel electrophoresis to give the so called DNA-Ladder. We tested the ability of pre-tubulysin-816 and -827 to induce apoptosis in HL-60 cell lines. Growing cells were treated with different concentrations of the drugs for 24 and 48 hours. After that cells were collected with centrifugation and the chromosomal DNA was separated by using agarose gel electrophoresis as described in the methods section. The resulting DNA bands were stained with ethidium bromide and visualized under UV-light. […] However, the concentration of Pre-tubulysin-816 that was needed to induce apoptosis in HL-60 cells was about 10 folds higher than that of pre-tubulysin-827 under the same experimental conditions. In Summary pre-tubulysins 816 and 827 are novel antimitotic drugs that target the microtubules, induce G2M arrest, and induce apoptosis in cancer cell lines. However, the molecular details of apoptosis induction caused by these Drugs is still to be investigated.

Values after ≈ are worked out from the molar mass of the structure shown.

The text below walks through data of patent US8791098B2 (priority 2008, dated 2014).

Method for SW-480: as §3

Turning to `CC[C@H](C)[C@H](NC(=O)[C@H]1CCCCN1C)C(=O)N(C)[C@H](CCc1nc(C(=O)N[C@H](CCC(=O)O)Cc2ccccc2)cs1)C(C)C` [pre-tubulysin-816, N-desmethyl-pretubulysin], the IC50 (in general, the concentration that gives 50% inhibition) in the assay with SW-480 turned out to be 1.37 ng/mL (≈ 2.09 nM); with U937 [1], 0.4 ng/mL (≈ 0.61 nM); in the assay on COS-7 it was 9.63 ng/mL (≈ 14.7 nM); in the assay on L929, 40 ng/mL (≈ 60.9 nM); in the assay with A431 it was 0.34 ng/mL (≈ 0.518 nM); with A549, 31.2 ng/mL (≈ 47.6 nM). Moreover, the 50% inhibitory concentration (IC50) with HEK293T was found to be 1.68 ng/mL (≈ 2.56 nM); in the assay on HL-60, 0.22 ng/mL (≈ 0.335 nM); in the assay on HepG2, 8.75 ng/mL (≈ 13.3 nM); in the assay on K562, 2.5 ng/mL (≈ 3.81 nM); in the assay with KB3.1 it was 26.3 ng/mL (≈ 40.1 nM); in the assay on SH-SY5Y, 2.9 ng/mL (≈ 4.42 nM). Moreover, the half-maximal inhibitory concentration (IC50) with SW480 was found to be 3.16 ng/mL (≈ 4.82 nM); with U937 [2] it was 0.38 ng/mL (≈ 0.579 nM). The “G2M cell cycle arrest” value with KB.3.1 cells (KB.3.1 cells, 24 hours) is on record as “induced an accumulation of the cells in the G2M-phase”. Moreover, in the assay with HL-60 cells, the “apoptosis induction (DNA laddering)” value is on record as “able to induce apoptosis”. In addition, in the assay with HL-60 cells (HL-60, same experimental conditions), the “concentration needed to induce apoptosis relative to pre-tubulysin-827” value is listed as “about 10 folds”.

For the compound `CC[C@H](C)[C@H](NC(=O)[C@H]1CCCCN1C)C(=O)N(C)[C@H](CCc1nc(C(=O)N[C@@H](Cc2ccccc2)C[C@H](C)C(=O)O)cs1)C(C)C` [pre-tubulysin-827, pretubulysin], the IC50 with SW-480 was 0.15 ng/mL (≈ 0.224 nM); in the assay with U937 [1], 0.09 ng/mL (≈ 0.134 nM); in the assay on COS-7, 1.13 ng/mL (≈ 1.69 nM); in the assay with L929, 3.87 ng/mL (≈ 5.78 nM); with A431, 1.24 ng/mL (≈ 1.85 nM); in the assay with A549, 4.35 ng/mL (≈ 6.49 nM). For the same compound, the IC50 worked out at 0.227 ng/mL (≈ 0.339 nM) in the assay with HEK293T; 0.0142 ng/mL (≈ 0.0212 nM) in the assay with HL-60; 0.64 ng/mL (≈ 0.955 nM) in the assay with HepG2; 0.35 ng/mL (≈ 0.522 nM) in the assay on K562; 2.32 ng/mL (≈ 3.46 nM) in the assay with KB3.1; 0.61 ng/mL (≈ 0.911 nM) in the assay with SH-SY5Y. Also, the concentration for half-maximal inhibition (IC50) with SW480 is 0.21 ng/mL (≈ 0.313 nM); with U937 [2], 0.043 ng/mL (≈ 0.0642 nM). In addition, the “cells accumulated in the G2M-phase” value with KB.3.1 cells (KB3.1 cells, 100 ng/ml, 24 h (control approximately 30%)) worked out at 65%. The “apoptosis induction (DNA laddering)” value with HL-60 cells was “able to induce apoptosis”.
